According to patent US11236354B2, “Glyphosate-n-acetyltransferase (GLYAT) sequences and methods of use” (PIONEER HI-BRED INTERNATIONAL, INC., priority 2013, dated 2022):

Legend:
Test in all cases: Substrate saturation kinetic analysis of purified GLYAT
[1] = target: GLYAT high specificity variant SEQ ID NO:29 (derived from SEQ ID NO:1 and 2; C29I, F31Y; motif VIMYETDLL, SEQ ID NO:174) (Bacillus licheniformis, UniProt Q65LG7); type: biochemical
Protocol: E. coli cultures in LB or 2×YT were grown overnight at 37° C. to saturation. The cells were used as a 2% inoculum into fresh media. When OD reached 0.6, IPTG was added to 0.2 mM and growth was continued for at least 6 hours. Cells were harvested by centrifugation and stored at −80° C. Cells were lysed with BPER (Pierce) containing 1 mM dithiothreitol, 0.2 mg/ml lysozyme, 2 mg/ml protease inhibitor cocktail (Sigma bacterial cell cocktail, P8465) and endonuclease. […] Purity as evaluated by polyacrylamide gel electrophoresis was deemed consistently high enough to be assumed to be 100%. Protein concentration was determined with the Bradford assay using a large-scale lot of produced GLYAT protein as standard.
Kinetic parameters for various substrates were obtained using a range of seven substrate concentrations plus a blank containing none of the varied substrate. […] Absorbance was monitored for one minute with a Spectramax 384 Plus plate reader (Molecular Devices). If the amino acid present at position 30 (29 if alanine is absent at position 2) was cysteine, absorbance was monitored at 235 nm, which directly detects cleavage of the sulfoester bond of acetyl CoA. […]

[2] = target: GLYAT variant SEQ ID NO:7 (derived from SEQ ID NO:1 and 2) (Bacillus licheniformis, UniProt Q65LG7, A28V/D131E/E119K/E14D/E65Q/E67K/E68K/E79G/E83D/G37R/G38S/G48A/I132L/I135A/I15L/I19V/I2L/I53V/I91V/K101R/K144R/K58Q/L105M/L106I/L26I/L36T/L97I/M75V/N109F/R47G/R92K/T33S/T89S/V114A/Y130F/Y31W/Y45F); type: biochemical
Protocol: (§1) E. coli cultures in LB or 2×YT were grown overnight at 37° C. to saturation. The cells were used as a 2% inoculum into fresh media. When OD reached 0.6, IPTG was added to 0.2 mM and growth was continued for at least 6 hours. Cells were harvested by centrifugation and stored at −80° C. Cells were lysed with BPER (Pierce) containing 1 mM dithiothreitol, 0.2 mg/ml lysozyme, 2 mg/ml protease inhibitor cocktail (Sigma bacterial cell cocktail, P8465) and endonuclease. Lysate supernatants were passed through a column of NHS-activated Agarose (Thermo, #26197) derivatized with coenzyme A. Columns were washed with 25 mM Hepes, pH 7, containing progressively higher concentrations of KCl, then eluted with 25 mM Hepes, 100 mM KCl, 10% ethylene glycol and 1 mM acetyl CoA. Purity as evaluated by polyacrylamide gel electrophoresis was deemed consistently high enough to be assumed to be 100%. Protein concentration was determined with the Bradford assay using a large-scale lot of produced GLYAT protein as standard.
(§2) Kinetic parameters for various substrates were obtained using a range of seven substrate concentrations plus a blank containing none of the varied substrate. The non-varied substrate was present at a saturating concentration. Six-microliter aliquots of 50-fold concentrated stock solutions of the varied substrate were placed in a 96-well assay plate (Greiner BioOne UV-Star). Reactions were started with the addition of 294 ul of 25 mM Hepes, pH 7.0, 100 mM KCL, 10% ethylene glycol, the non-varied substrate and 10 to 200 nM enzyme. Absorbance was monitored for one minute with a Spectramax 384 Plus plate reader (Molecular Devices). If the amino acid present at position 30 (29 if alanine is absent at position 2) was cysteine, absorbance was monitored at 235 nm, which directly detects cleavage of the sulfoester bond of acetyl CoA. If the amino acid present at position 30 (29 if alanine is absent at position 2) was isoleucine, 0.5 mM 5,5′-dithiobis-(2-nitrobenzoic acid), which reacts with the coenzyme A thiol generated in the enzyme catalyzed reaction, was included in the reaction mix and absorbance was monitored at 412 nm. Initial rates were processed by the Softmax software to obtain kinetic parameters, using the double-reciprocal transformation.

[3] = target: T1, native GLYAT (glyphosate-N-acetyltransferase), SEQ ID NO:173 (Bacillus licheniformis, UniProt Q65LG7); type: biochemical; settings: Table 5; native GLYAT SEQ ID NO:173; ratio of kcat/Km asp to kcat/Km glyph
T1 sequence (Q65LG7 1-146): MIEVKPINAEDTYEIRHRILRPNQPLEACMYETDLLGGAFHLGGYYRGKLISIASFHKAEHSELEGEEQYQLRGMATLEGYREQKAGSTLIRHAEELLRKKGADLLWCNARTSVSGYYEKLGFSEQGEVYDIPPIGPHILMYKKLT
Protocol: as §1, §2

[4] = target: novel GLYAT variants of Table 3 (high specificity variants derived from SEQ ID NO:1 and 2) (Bacillus licheniformis, UniProt Q65LG7); type: biochemical; settings: lowest value in novel variants
Protocol: as §1, §2

[5] = target: GLYAT variant SEQ ID NO:4 (derived from SEQ ID NO:1 and 2) (Bacillus licheniformis, UniProt Q65LG7, D131E/E14D/E65Q/E67K/E68K/G37R/G38S/I132T/I135A/I15L/I19V/I53V/I91V/K101R/K144R/K58Q/L105M/L26I/L36T/L97I/M75V/R47G/R92K/T33S/T89S/V114A/Y130F/Y31F/Y45F); settings: pH 7.0
[6] = target: GLYAT variant SEQ ID NO:8 (derived from SEQ ID NO:1 and 2) (Bacillus licheniformis, UniProt Q65LG7, A28V/D131E/E119K/E14D/E65Q/E67K/E68K/E83D/G37R/G38S/I132T/I135A/I15L/I53V/I91V/K101R/K144R/K58Q/L105M/L106I/L26I/L36T/L97I/M75V/N8S/R47G/R92K/T89S/V114A/Y130F/Y45F); settings: pH 7.0
[7] = target: GLYAT variant SEQ ID NO:9 (derived from SEQ ID NO:1 and 2) (Bacillus licheniformis, UniProt Q65LG7, A28V/D131E/E119K/E14D/E65Q/E67K/E68K/G37R/G38S/I132T/I135A/I15L/I19V/I53V/I91V/K101R/K144R/K58Q/L105M/L26I/L97I/M75V/R47G/R92K/T89S/V114A/Y130F/Y45F); settings: pH 7.0
[8] = pH 7.0, non-varied substrate saturating

N[C@@H](CC(=O)O)C(=O)O [aspartate]
activity with aspartate (kcat/Km) ([1]; 25 mM Hepes, pH 7.0): 8 M⁻¹ s⁻¹ | kcat/Km asp, % glyph ([1]; Table 5, ratio of kcat/Km asp to kcat/Km glyph): 0.013% | Asp as % of glyph (kcat/KM asp / kcat/KM glyph) ([2]; pH 7.0): 0.154% | kcat (aspartate) [2, 8]: 1.52 s⁻¹ | kcat/KM (aspartate) [2, 8]: 13.7 M⁻¹ s⁻¹ | kcat/Km asp, % glyph [3]: 55.6% | specificity (kcat/KM asp/kcat/KM glyph) [4]: ≥ 0.014% | kcat/KM with aspartate ([4]; 25 mM Hepes, pH 7.0): ≥ 1.7 M⁻¹ s⁻¹ | Asp as % of glyph (kcat/KM asp / kcat/KM glyph) [5]: 0.210% | Asp as % of glyph (kcat/KM asp / kcat/KM glyph) [6]: 0.079% | Asp as % of glyph (kcat/KM asp / kcat/KM glyph) [7]: 0.073%
